Where “and” joins values, the source holds several entries; their conditions need not be identical. Identical values can stand only once.
Columns and labels:
[1] = Surfactant stability: change in lauric acid concentration of surfactant solutions after 65 C for 1 month vs baseline (HPLC/MS/MS); assay type: physicochemical; conditions: for Delta % lauric acid/Co Surfactant Conc.: 8.0% co surfactant alone, 65 C 1 month vs as made at about 25 C; for Delta % lauric acid/Anionic Surfactant Conc.: 65 C 1 month
Experimental: Lowering the personal care composition's pH is a key driver of hydroxy acid delivery to the hair and the skin under the hair. However, lowering pH reduces the options of suitable anionic surfactants free-of sulfates as many are susceptible to hydrolysis. Therefore, surfactant stability is analyzed by measuring the change in lauric acid concentration of surfactant solutions after exposure to high temperature (65 C) for 1 month and at range of pH vs. baseline conditions (surfactant solutions as made at ambient temperature of about 25 C). As shown in the table below, the Taurate surfactants are less susceptible to degradation at lower pH and (rows 8-10, 17-21 and 30-33) vs. other common amino acid based anionic surfactants (Sarcosinate, Alaninate, Glutamate, Glycinate, and Isethionate).
Approximately 10 mg of each sample is weighed into a vial and 10 mL of isopropanol (IPA) added and mixed. An aliquot of the diluted sample (0.1 mL) is then transferred into an autosampler vial containing stable-isotope-labeled (D23 lauric acid) internal standard (ISTD) and diluent (85/15 IPA/water, 0.9 mL). A set of lauric acid standards is prepared over an appropriate calibration range in diluent and spiked with ISTD. The standards and samples are analyzed using gradient reversed-phase high performance liquid chromatography with tandem mass spectrometry (HPLC/MS/MS). Lauric acid and the ISTD are monitored by negative ion electrospray (ESI) using “pseudo” selected reaction monitoring (i.e., a precursor-to-precursor transition with no mass loss). A standard curve is constructed by plotting the peak area ratio (peak area lauric acid/peak area ISTD) for each standard versus lauric acid concentration. The amount of lauric acid in the calibration standards and diluted samples is back-calculated using the generated regression equation. The result is reported as the mass of lauric acid per g of sample (% Lauric Acid).

forearm skin = assay: Surfactant mildness forearm study, GPSkin device, TEWL; assay type: in vivo; conditions: Sodium Methyl Cocoyl Taurate at 2.5% vs Sodium Lauryl Sulfate at 9.0%, pH 3.0 compositions
Experimental: • Method. A simple forearm study design approach is leveraged to screen prototypes for skin health benefits. GPSkin devices from GPOWER Inc. are used to monitor skin health over the duration of the study. Baseline GPSkin health measures are taken on day 1 followed by product treatment and rinse. This procedure is repeated over three consecutive days and two treatments are evaluated. n=7

[2] = 7.0% Cocamidopropyl Betaine + 3.0% anionic surfactant, pH 5.2
[3] = 7.0% Cocamidopropyl Betaine + 3.0% anionic surfactant, pH 5.8
[4] = 7.0% Cocamidopropyl Betaine + 3.0% anionic surfactant, pH 6.5
[5] = 7.0% Cocamidopropyl Betaine + 3.0% anionic surfactant, pH 4.5

Delta % lauric acid/Anionic Surfactant Conc. [1, 2] | Delta % lauric acid/Anionic Surfactant Conc. [1, 3] [%] | Delta % lauric acid/Anionic Surfactant Conc. [1, 4] [%] | Delta % lauric acid/Anionic Surfactant Conc. [1, 5] [%] | Compound | also measured
1.005% and 1.220% and 1.468% | 0.689 | 0.510 |  | Sodium methyl cocoyl taurate | mildness on forearm skin (forearm skin): milder on forearm skin than Sodium Lauryl Sulfate at 9.0%; Delta % lauric acid/Anionic Surfactant Conc. ([1]; 8.0% anionic surfactant alone, pH 5.1): 0.218%; Delta % lauric acid/Anionic Surfactant Conc. ([1]; 8.0% anionic surfactant alone, pH 5.8): 0.026%; Delta % lauric acid/Anionic Surfactant Conc. ([1]; 8.0% anionic surfactant alone, pH 6.5): 0.223%
7.379% |  |  |  | Sodium cocoyl isethionate | Delta % lauric acid/Anionic Surfactant Conc. ([1]; 7.0% Cocamidopropyl Betaine + 3.0% anionic surfactant, pH 5.7): 4.277%; Delta % lauric acid/Anionic Surfactant Conc. ([1]; 7.0% Cocamidopropyl Betaine + 3.0% anionic surfactant, pH 6.4): 3.124%
7.971% | 1.791 | 0.619 | 12.626 | Sodium cocoyl glycinate | 

Further lines, the compound ahead of its results:

Compound | Delta % lauric acid/Anionic Surfactant Conc. [1, 2] | Delta % lauric acid/Anionic Surfactant Conc. [1, 3] [%] | Delta % lauric acid/Anionic Surfactant Conc. [1, 4] [%] | Delta % lauric acid/Anionic Surfactant Conc. [1, 5] [%] | also measured
Cocamidopropyl Betaine |  |  |  |  | Delta % lauric acid/Co Surfactant Conc. ([1]; pH 5.2): 0.130%; Delta % lauric acid/Co Surfactant Conc. ([1]; pH 5.8): 0.216%; Delta % lauric acid/Co Surfactant Conc. ([1]; pH 6.5): 0.187% and 0.154%
Sodium cocoyl alaninate | 5.890% | 2.058 | 1.097 | 9.905 | Delta % lauric acid/Anionic Surfactant Conc. ([1]; 8.0% anionic surfactant alone, pH 5.2): 5.735%; Delta % lauric acid/Anionic Surfactant Conc. ([1]; 8.0% anionic surfactant alone, pH 5.6): 2.086%; Delta % lauric acid/Anionic Surfactant Conc. ([1]; 8.0% anionic surfactant alone, pH 6.3): 0.729%
CCCCCCCCCCCC(=O)OC(C)CS(=O)(=O)[O-].[Na+] (centres unmarked) [Sodium Lauroyl Methyl Isethionate] | 5.262% | 2.867 | 3.002 | 16.097 | 
Sodium cocoyl taurate | 0.135% | −0.276 | 0.024 | 1.076 | 

Source: US20240299275A1, “HYDROXY ACIDS FOR SCALP AND HAIR IN SULFATE FREE PERSONAL CARE COMPOSITIONS” (The Procter & Gamble Company, priority 2023, published 2024)
